From paper PMC6934184, “Selective DNA-PKcs inhibition extends the therapeutic index of localized radiotherapy and chemotherapy” (The Journal of Clinical Investigation, 2019)

Target: T1, MAP2K3 (MEK3) (Homo sapiens, UniProt P46734)
T1 construct: purchased Thermo Fisher Scientific (Life Technologies) SelectScreen
Assay: SelectScreen LanthaScreen
Format: binding
Conditions: read-out: % displacement
Method in brief: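 NU5455 was profiled across the SelectScreen Broad panel of kinase activity and binding assays. Z'LYTE reactions such as CSF1R ran at apparent Km ATP, while the Adapta CAMK1 assay used ATP listed as 10. Values are given as percent.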

T1 sequence (P46734 whole entry): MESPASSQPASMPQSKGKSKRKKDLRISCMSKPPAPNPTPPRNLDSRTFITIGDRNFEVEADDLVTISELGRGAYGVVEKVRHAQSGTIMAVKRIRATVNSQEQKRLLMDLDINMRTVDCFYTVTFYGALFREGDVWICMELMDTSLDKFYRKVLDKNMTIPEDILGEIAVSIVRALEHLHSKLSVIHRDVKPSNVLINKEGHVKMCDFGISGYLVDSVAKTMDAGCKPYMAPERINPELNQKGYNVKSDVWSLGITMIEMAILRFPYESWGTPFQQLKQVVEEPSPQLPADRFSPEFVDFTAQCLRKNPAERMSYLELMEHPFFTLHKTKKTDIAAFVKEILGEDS

CN(C(=O)CN1CCOCC1)c1ccc2sc3c(-c4cccc5c(=O)cc(N6CC7CCC(C6)O7)oc45)cccc3c2c1 [NU5455]
inhibition at 1 µM: 1.6%
